Measured values taken from publication PMC9631755, “Development of AB3-Type Novel Phthalocyanine and Porphyrin Photosensitizers Conjugated with Triphenylphosphonium for Higher Photodynamic Efficacy” (ACS Omega, 2022).
pIC50: −log10 of the molar value. Like-named read-outs stand apart in the source and are kept apart here.

Experiments:
[1] = Fluorescence quantum yield, comparative method; assay type: physicochemical; details: THF
Procedure: Excitation spectra in the Q-band region have been obtained by monitoring the fluorescence emission spectra at the indicated wavelength of porphyrins and phthalocyanine compounds. The fluorescence quantum yields (ΦF) of all structures were determined in THF, using a comparative method. The values were 0.009, 0.14, 0.13, and 0.13, for LuPcPox(OAc), AB3TPP-Pc, AB3TPP-Por-C4, and AB3TPP-Por-C6, respectively. The lowest ΦF value 0.009 belongs to LuPcPox(OAc) and is close to the value (0.004) obtained in DMSO in our previous study.[24] This could be the result of the higher atomic number of lutetium in the cavity of phthalocyanine which may facilitate intersystem crossing to its excited triplet state after excitation. However, the difference and purpose of this study from our previous work are to examine whether there will be a change in the fluorescence property with the addition of the mitochondria targeting the TPP group to the structure. We achieved this goal. The ΦF value of AB3TPP-Pc was 0.14, although it was lower than the reference molecule (ZnPc ΦF= 0.25),[43] and the presence of the TPP group on the structure increased the fluorescence efficiency approximately 15 times that of LuPcPox(OAc) ΦF = 0.009. […] The normalized absorption, excitation, and emission spectra for all compounds are shown in Figure 3, and ΦF values are given in Table 2.

[2] = Singlet-oxygen quantum yield, direct method (phosphorescence); assay type: physicochemical; details: for ΦΔ singlet-oxygen quantum yield: THF
Procedure: For PDT, tumor cells are killed by ROS that is produced by a photosensitizer; thus, the production of ^1O2 by the photosensitizer plays a vitally important role in PDT.[46] To evaluate the photosensitizing properties of novel macrocyclic structures, singlet-oxygen quantum yields have been evaluated by a direct method in THF. Singlet-oxygen phosphorescence spectra for all compounds excited with a xenon-arc source at their respective absorption maxima were recorded by a near-IR-sensitive detector. ZnPc and H2TPP were used as the standard for phthalocyanine and porphyrin derivatives that have singlet oxygen yields of 0.53[47] and 0.58[33],[34] in THF, respectively. Singlet-oxygen phosphorescence spectra of Pc and Por. derivatives in THF at equal absorbance (0.23) were obtained to directly determine ΦΔ (Figures S20 and S21). […] Apparently, AB3TPP-Pc is almost three times as efficient as LuPcPox(OAc) in producing singlet oxygen, matching well with our proposal that the TPP-conjugated phthalocyanine could serve as an ideal candidate for mitochondrial-targeted PDT reagent.

BEAS-2B cells = assay: MTT cell viability of BEAS-2B cells, dark and 660 nm light irradiation; assay type: cell-based
Procedure: (§1) A549 and BEAS-2B cells were obtained from ATCC with reference numbers CCL-185 and CRL-9609, respectively. A549 cells were cultured in DMEM (with 2 mM L-glutamine, Gibco, United States), while RPMI 1640 (with 2 mM L-glutamine, Gibco, United States) was used for BEAS-2B cells. Both media were supplemented with 10% fetal bovine serum (FBS) (Gibco, United States), and cells were cultured in an incubator with a humidified atmosphere of 5% CO2 at 37 °C.[24]
(§2) For the evaluation of cytotoxic activity, an MTT assay was employed. Cells were seeded 1 day prior to treatment in 96-well plates at a concentration of 20,000 cells/mL. Followed by overnight incubation, the cells were exposed to LuPcPox(OAc), AB3TPP-Pc, AB3TPP-Por-C4, PP-Por-C6, H2TPP, and ZnPc molecules. All molecules were dispersed in DMSO. The working concentrations of the molecules contain <0.1% (v/v) of DMSO. Time-point assays were performed after 24 and 48 h. The final concentration of MTT was 0.5 mg/mL, and after 3 h incubation, absorbances were measured at 545 nm. The absorbance of the blank group which was the samples containing media with 10% FBS was subtracted from the measurements and cell viability was determined by the following formula.[52] The control group was composed of nontreated cells. Cell viability (%) = (absorbance value of sample/absorbance value of control) × 100.
(§3) The cells seeded at a concentration of 20,000 cells/mL in the 96-well plates were irradiated at 660 nm using an LED light array producing a flux of 0.036 J cm^–2 s^–1 (0.036 W/cm^2). In order to determine the cytotoxic effects of Pcs under light, one group of each cell line was exposed to an LED array for 30 min at room temperature and then returned to the incubator, while another group was incubated in the dark.[24] The delivered red photons on the cells were measured by a calibrated PAR meter (Apogee SQ-520). The temperature of the chamber under continuous light flux was monitored synchronously for ensuring the stability of the conditions.[53]
(§4) The cells were seeded at a concentration of 20,000 cells/mL on 96-well plates and incubated for 24 h. The Pcs were added in 0.1, 2.5, 5, 10, 25, and 50 μM concentrations for evaluating the toxicity with/without light except for LuPcPox(OAc). The LuPcPox(OAc) was added into the wells as 0.01, 0.03, 0.09, 0.25, 0.50, and 1 μM concentration because a concentration over 1.0 μM kills the cells immediately. The Pcs in the cell media were discarded, and a fresh medium was added to the cells to remove noninternalized molecules. The viability of the cells was recorded for 24 and 48 h after the addition of Pcs. The cells were irradiated for 30 min.
(§5) IC50 values of the Pcs were determined by fitting the cell’s viability curve acquired from the spectroscopic data. All the values were obtained by using Origin Software (Figure 7).

[3] = UV-vis absorption, extinction coefficient at 660 nm; assay type: physicochemical; details: 2 × 10^–6 M in THF
Procedure: In our study, the Lambert–Beer law indicating a linear relationship between absorbance and concentrations was obeyed for all porphyrin and phthalocyanine compounds in dimethylsulfoxide (DMSO) in the whole 2–8 μM concentration measurement range (Figure 2). The UV–vis spectra of macrocyclic compounds were recorded in both DMSO and tetrahydrofuran (THF), solvents in which all compounds are soluble (Figures S13–S19). […] This diverse absorption behavior of complexes comes from their different subunits which are isoindoles and pyrroles in the skeleton of macrocycles for phthalocyanine and porphyrin, respectively.[40],[41]Table 1 summarizes the wavelengths and associated extinction coefficients in Q and Soret (B) bands in DMSO.

A549 cells = assay: MTT cell viability of A549 cells, dark and 660 nm light irradiation; assay type: cell-based; details: for pIC50: 24 h
Procedure: as §1, §2, §3, §4, §5

[4] = Fluorescence lifetime, TCSPC; assay type: physicochemical; details: THF, mono-exponential decay
Procedure: Luminescence lifetime measurements were performed on a fluorescence spectroscopy Fluorolog-3 (HORIBA Jobin Yvon) system in the single-photon counting (TCSPC) mode. A NanoLED light source (HORIBA Jobin Yvon) of λmax 390 nm was used for 395 nm excitation. All measurements were carried out in 0.2 ab. solutions in THF at room temperature. […] AB3TPP-Pc and LuPcPox(OAc) show a biexponential decay. The short-lived species are due to component features τf of 2.54 ns (responsible for 35.78%) and τf of 2.14 ns (responsible for 32.47%) photons emitted by AB3TPP-Pc and LuPcPox(OAc), respectively. The longer lifetime has a τf of 4.77 ns (assume 64.22%) and 3.11 ns (assume 67.53%) of emission for AB3TPP-Pc and LuPcPox(OAc), respectively.

[5] = reference substance; cited from earlier work
[6] = THF, standard; cited from earlier work
[7] = Homo sapiens, dark, 24 h, read-out: IC50
[8] = Homo sapiens, light (660 nm, 30 min), 24 h, read-out: IC50
[9] = Homo sapiens, A549, light (660 nm, 30 min)

| Molecule | ΦF fluorescence quantum yield [1] | ΦΔ singlet-oxygen quantum yield [2] | log ε (660 nm) [3] | pIC50 (BEAS-2B cells; [7]) | pIC50 (BEAS-2B cells; [8]) | pIC50 (A549 cells; Homo sapiens, A549, dark) | pIC50 (A549 cells; [9]) | τF fluorescence lifetime [4] [ns] | also measured |
| --- | --- | --- | --- | --- | --- | --- | --- | --- | --- |
| COCCOCCOCCSc1cc2c(cc1SCCOCCOCCOC)-c1nc-2nc2[nH]c(nc3nc(nc4[nH]c(n1)c1cc(SCCOCCOCCOC)c(SCCOCCOCCOC)cc41)-c1cc(SCCOCCOCCOC)c(SCCOCCOCCOC)cc1-3)c1cc(SCCCCCCOCCCCCC[P+](c3ccccc3)(c3ccccc3)c3ccccc3)ccc21 [AB3TPP-Pc] | 0.14 | 0.75 | 4.18 |  |  |  |  |  | increase of fluorescence efficiency over LuPcPox(OAc) [1]: approximately 15 times; singlet oxygen-producing capacity compared to LuPcPox(OAc) [2]: ~3 times; singlet oxygen-producing capacity, more efficient with respect to ZnPc [2]: 50%; cytotoxic concentration (BEAS-2B cells; dark, 24 and 48 h): < 6 µM; pIC50 (BEAS-2B cells; light, 48 h, read-out: IC50 (cytotoxic concentration)): 5.62 |
| COc1ccc(-c2c3nc(c(-c4ccc(OC)cc4)c4ccc([nH]4)c(-c4ccc(OCCCC[P+](c5ccccc5)(c5ccccc5)c5ccccc5)cc4)c4nc(c(-c5ccc(OC)cc5)c5ccc2[nH]5)C=C4)C=C3)cc1 [AB3TPP-Por-C4] | 0.13 | 0.57 | 3.43 | 4.94 | > 7.00 | < 4.30 | 4.99 | 8.87 | increase of toxicity under light compared to the dark (from IC50) (A549 cells; A549): 2 fold; cytotoxicity (in words) (A549 cells; A549, dark, up to 48 h): noncytotoxic |
| COc1ccc(-c2c3nc(c(-c4ccc(OC)cc4)c4ccc([nH]4)c(-c4ccc(OCCCCCC[P+](c5ccccc5)(c5ccccc5)c5ccccc5)cc4)c4nc(c(-c5ccc(OC)cc5)c5ccc2[nH]5)C=C4)C=C3)cc1 [AB3TPP-Por-C6] | 0.13 | 0.58 | 3.56 | 4.99 | > 7.00 | 4.60 | 5.44 | 8.91 | reduction of cell viability compared to AB3Por-C4 (phototoxicity) (A549 cells; A549): 2 fold; reduction of cell viability compared to H2TPP (phototoxicity) (A549 cells; A549): 5 fold; critical concentration (decrease in viability) (A549 cells; A549, after light irradiation, 24 and 48 h): 2.5 µM |
| [Zn+2].c1ccc2c(c1)-c1nc-2nc2[n-]c(nc3nc([n-]c4nc(n1)-c1ccccc1-4)-c1ccccc1-3)c1ccccc21 [ZnPc, zinc (II)phthalocyanine, reference compound] |  |  |  |  |  |  |  | 2.72 |  |
| Tetraphenylporphyrin [H2TPP, reference compound] | 0.13 | 0.58 |  |  |  |  |  | 10.3 | ΦF fluorescence quantum yield [5]: 0.13; pIC50 (BEAS-2B cells; dark, 24 h, read-out: IC50): 4.92; pIC50 (BEAS-2B cells; light (660 nm, 30 min), 24 h, read-out: IC50): 5.17; pIC50 (A549 cells; A549, dark): 4.71; pIC50 (A549 cells; A549, light (660 nm, 30 min)): 4.71; ΦΔ singlet-oxygen quantum yield [6]: 0.58 |
